According to patent US12060347B2 (BRISTOL-MYERS SQUIBB COMPANY, priority 2016, dated 2024):

Biological target: T1, human PAR4 (Homo sapiens, UniProt Q96RI0)
T1 construct: expressed in transfected cells; host or cells: HEK293 PAR4 Clone 1.2A (BMS Arctic ID 383940)
T1 sequence (Q96RI0 18-385): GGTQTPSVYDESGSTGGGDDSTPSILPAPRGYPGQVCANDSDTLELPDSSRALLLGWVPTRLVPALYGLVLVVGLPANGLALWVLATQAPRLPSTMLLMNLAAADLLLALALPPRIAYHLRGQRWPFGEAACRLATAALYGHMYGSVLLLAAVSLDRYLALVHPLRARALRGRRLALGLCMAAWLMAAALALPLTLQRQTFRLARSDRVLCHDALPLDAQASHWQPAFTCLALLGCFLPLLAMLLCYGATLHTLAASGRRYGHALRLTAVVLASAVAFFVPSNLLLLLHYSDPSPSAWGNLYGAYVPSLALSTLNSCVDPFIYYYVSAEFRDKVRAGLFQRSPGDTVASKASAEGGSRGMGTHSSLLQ
Test: PAR4 FLIPR assay: antagonism of agonist-peptide-induced calcium mobilization in PAR4-expressing HEK293 cells
Assay type: cell-based
Conditions: H-Ala-Phe(4-F)-[…]NH2-induced intracellular calcium mobilization, 11-point curves

Row | IC50 | SMILES
1 | 10 nM | COc1cnc2c(-c3nc4cc(F)c(OC[C@@H](C)OC(=O)Nc5cnc(CO)nc5)nc4s3)cc(Cl)cc2c1 [Example 794, (R)-1-((2-(6-chloro-3-methoxyquinolin-8-yl)-6-fluorothiazolo[5,4-b]pyridin-5-yl)oxy)propan-2-yl (2-(hydroxymethyl)pyrimidin-5-yl)carbamate]
2 | 0.8 nM | COc1cnc2c(-c3nc4cc(F)c(OC[C@@H](C)OC(=O)Nc5ccnc(C(=O)NCCO)c5)cc4s3)cc(C)cc2n1 [Example 442, (R)-1-((5-fluoro-2-(2-methoxy-7-methylquinoxalin-5-yl)benzo[d]thiazol-6-yl)oxy)propan-2-yl (2-((2-hydroxyethyl)carbamoyl)pyridin-4-yl)carbamate]
3 | 4.7 nM | COc1ccc2oc(-c3cc(C)cc4nc(OC)cnc34)cc2c1 [Example 56, 2-methoxy-5-(5-methoxybenzofuran-2-yl)-7-methylquinoxaline]
4 | 9.8 nM | Cc1cc(-c2nc3c(F)cccc3s2)c2ncc(OC(F)F)nc2c1 [Example 53, 2-(2-(difluoromethoxy)-7-methylquinoxalin-5-yl)-4-fluorobenzo[d]thiazole]
5 | 2.9 nM | Cc1cc(-c2nc3c(F)cc(OCCNS(=O)(=O)c4ccccc4)cc3s2)c2ncc(OC(F)F)nc2c1 [Example 67, N-(2-(2-(2-(difluoromethoxy)-7-methylquinoxalin-5-yl)-4-fluorobenzo[d]thiazol-6-yloxy)ethyl)benzenesulfonamide]
6 | 5.3 nM | COc1cc(C(O)Cc2ccccc2)c2nc(-c3cc(C)cc4nc(OC)cnc34)sc2c1 (stereo not drawn) [Example 631, 1-(6-methoxy-2-(2-methoxy-7-methylquinoxalin-5-yl)benzo[d]thiazol-4-yl)-2-phenylethanol]
7 | 16 nM | COCc1cnc2c(-c3nc4c(C)cc(OC)cc4s3)nc(C)cc2c1 [Example 153, 6-methoxy-2-(3-(methoxymethyl)-6-methyl-1,7-naphthyridin-8-yl)-4-methylbenzo[d]thiazole]
8 | 2.2 nM | COCc1cnc2c(-c3nc4c(Cl)cc(F)cc4s3)cc(C)cc2n1 [Example 266, 4-chloro-6-fluoro-2-(2-(methoxymethyl)-7-methylquinoxalin-5-yl)benzo[d]thiazole]
9 | 1.9 nM | COc1cnc2c(-c3nc4cc(F)c(O[C@@H](C)[C@@H](C)OC(=O)Nc5cncc(C#N)c5)cc4s3)cc(Cl)cc2n1 [Example 826, (2R,3S)-3-((2-(7-chloro-2-methoxyquinoxalin-5-yl)-5-fluorobenzo[d]thiazol-6-yl)oxy)butan-2-yl (5-cyanopyridin-3-yl)carbamate]
10 | 17 nM | COc1cc(C)c2nc(-c3cc(C)cc4nc(C(F)(F)OC)cnc34)sc2c1 [Example 186, 2-(2-(difluoro(methoxy)methyl)-7-methylquinoxalin-5-yl)-6-methoxy-4-methylbenzo[d]thiazole]
11 | 2.1 nM | COCc1cnc2c(-c3nc4c(F)cc(F)cc4s3)cc(C)cc2n1 [Example 257, 4,6-difluoro-2-(2-(methoxymethyl)-7-methylquinoxalin-5-yl)benzo[d]thiazole]
12 | 1.2 nM | COc1cnc2c(-c3nc4cc(F)c(O[C@@H](C)[C@@H](C)OC(=O)Nc5cnc(OCCO)nc5)cc4s3)cc(Cl)cc2c1 [Example 512, (2R,3S)-3-((2-(6-chloro-3-methoxyquinolin-8-yl)-5-fluorobenzo[d]thiazol-6-yl)oxy)butan-2-yl (2-(2-hydroxyethoxy)pyrimidin-5-yl)carbamate]
13 | 4 nM | COCc1cnc2c(-c3nc4c(C)c(F)c(OC)nc4s3)cc(C)cc2n1 [Example 763, 6-fluoro-5-methoxy-2-(2-(methoxymethyl)-7-methylquinoxalin-5-yl)-7-methylthiazolo[5,4-b]pyridine]
14 | 0.7 nM | COc1cnc2c(-c3nc4cc(F)c(OC[C@@H](C)OC(=O)Nc5cccnc5)nc4s3)cc(C)cc2n1 [Example 684, (R)-1-((6-fluoro-2-(2-methoxy-7-methylquinoxalin-5-yl)thiazolo[5,4-b]pyridin-5-yl)oxy) propan-2-yl pyridin-3-ylcarbamate]
15 | 1 nM | COc1cnc2c(-c3nc4cc(F)c(O[C@@H](C)[C@@H](C)OC(=O)Nc5ccnc(O[C@H](C)CO)c5)cc4s3)cc(C)cc2n1 [Example 549, (2R,3S)-3-((5-fluoro-2-(2-methoxy-7-methylquinoxalin-5-yl)benzo[d]thiazol-6-yl)oxy)butan-2-yl (2-(((R)-1-hydroxypropan-2-yl)oxy)pyridin-4-yl)carbamate]
16 | 5.8 nM | COCc1cnc2c(-c3nc4c(C)cc(OCCNS(=O)(=O)c5ccc(F)cc5)cc4s3)cccc2n1 [Example 213, 4-fluoro-N-(2-((2-(2-(methoxymethyl)quinoxalin-5-yl)-4-methylbenzo[d]thiazol-6-yl)oxy)ethyl) benzenesulfonamide]

Row | IC50 | SMILES
17 | 0.6 nM | COc1cnc2c(-c3nc4cc(F)c(O[C@@H](C)[C@@H](C)OC(=O)Nc5ccc(C#N)nc5)cc4s3)cc(Cl)cc2n1 [Example 829, (2R,3S)-3-((2-(7-chloro-2-methoxyquinoxalin-5-yl)-5-fluorobenzo[d]thiazol-6-yl)oxy)butan-2-yl (6-cyanopyridin-3-yl)carbamate]
18 | 3.2 nM | COc1cc(C(O)C2(C)CCCCC2)c2nc(-c3cc(C)cc4nc(OC)cnc34)sc2c1 (stereo not drawn) [Example 676, (6-methoxy-2-(2-methoxy-7-methylquinoxalin-5-yl)benzo[d]thiazol-4-yl)(1-methylcyclohexyl)methanol]
19 | 1.9 nM | COc1cnc2c(-c3nc4cc(F)c(O[C@@H](C)[C@@H](C)OC(=O)Nc5ccnc(C(=O)N(C)C)c5)cc4s3)cc(C)cc2n1 [Example 467, (2R,3S)-3-((5-fluoro-2-(2-methoxy-7-methylquinoxalin-5-yl)benzo[d]thiazol-6-yl)oxy)butan-2-yl (2-(dimethylcarbamoyl)pyridin-4-yl)carbamate]
20 | 12 nM | COc1cnc2c(-c3nc4c(Cl)c(F)c(OCCOC(=O)Nc5cnc6c(c5)cc(C)n6C)cc4s3)cc(C)cc2n1 [Example 367, 2-((4-chloro-5-fluoro-2-(2-methoxy-7-methylquinoxalin-5-yl)benzo[d]thiazol-6-yl)oxy)ethyl (1,2-dimethyl-1H-pyrrolo[2,3-b]pyridin-5-yl)carbamate]
21 | 1.7 nM | COCc1cnc2c(-c3nc4ccc(OC)nc4s3)cc(C)cc2n1 [Example 147]
22 | 4.3 nM | COc1cnc2c(-c3nc4cc(F)c(OC)cc4s3)cc(C)cc2n1 [Example 280, 5-fluoro-6-methoxy-2-(2-methoxy-7-methylquinoxalin-5-yl)benzo[d]thiazole]
23 | 6.8 nM | COCc1cnc2c(-c3nc4c(Cl)cc(OC)c(F)c4s3)cc(C)cc2n1 [Example 265, 4-chloro-7-fluoro-6-methoxy-2-(2-(methoxymethyl)-7-methylquinoxalin-5-yl)benzo[d]thiazole]
24 | 10 nM | COCc1cnc2c(-c3nc4c(OCc5ccccc5)cc(OC)cc4s3)cc(C)cc2n1 [Example 635, 4-(benzyloxy)-6-methoxy-2-(2-(methoxymethyl)-7-methylquinoxalin-5-yl)benzo[d]thiazole]
25 | 16 nM | COc1cnc2c(-c3nc4c(C)cc(OCCOC(=O)Nc5cnc(Cl)nc5)cc4s3)cc(C)cc2n1 [Example 119, 2-((2-(2-methoxy-7-methylquinoxalin-5-yl)-4-methylbenzo[d]thiazol-6-yl)oxy)ethyl (2-chloropyrimidin-5-yl)carbamate]
26 | 2.9 nM | COc1cnc2c(-c3nc4c(Cl)c(F)c(OC)cc4s3)cc(Cl)cc2n1 [Example 215, 4-chloro-2-(7-chloro-2-methoxyquinoxalin-5-yl)-5-fluoro-6-methoxybenzo[d]thiazole]
27 | 31 nM | CCOC(=O)COc1cc(C)c2nc(-c3cc(Cl)cc4nc(OC)cnc34)sc2c1 [Example 250, Ethyl 2-((2-(7-chloro-2-methoxyquinoxalin-5-yl)-4-methylbenzo[d]thiazol-6-yl)oxy) acetate]
28 | 1.2 nM | COCc1cnc2c(-c3nc4ccccc4s3)cc(C)cc2n1 [Example 256, 2-(2-(methoxymethyl)-7-methylquinoxalin-5-yl)benzo[d]thiazole]
29 | 6 nM | COCc1cnc2c(-c3nc4c(C)c(F)c(O)cc4s3)cc(C)cc2n1 [Example 290, 5-fluoro-2-(2-(methoxymethyl)-7-methylquinoxalin-5-yl)-4-methylbenzo[d] thiazol-6-ol]
30 | 0.4 nM | COc1cnc2c(-c3nc4cc(F)c(OC[C@@H](C)OC(=O)Nc5ccc(C)nc5)nc4s3)cc(C)cc2n1 [Example 681, (R)-1-((6-fluoro-2-(2-methoxy-7-methylquinoxalin-5-yl)thiazolo[5,4-b]pyridin-5-yl)oxy) propan-2-yl (6-methylpyridin-3-yl)carbamate]
31 | 39 nM | COCCOc1cccc2nc(-c3cc(C)cc4nc(OC)cnc34)sc12 [Example 78, 2-(2-methoxy-7-methylquinoxalin-5-yl)-7-(2-methoxyethoxy)benzo[d]thiazole]
32 | 24 nM | COc1cnc2c(-c3nc4cc(F)c(O[C@@H](C)[C@@H](C)OC(=O)Nc5cnc(CO)nc5)nc4s3)cc(Cl)cc2c1 [Example 793, (2R,3S)-3-((2-(6-chloro-3-methoxyquinolin-8-yl)-6-fluorothiazolo[5,4-b]pyridin-5-yl)oxy)butan-2-yl (2-(hydroxymethyl)pyrimidin-5-yl)carbamate]

Row | SMILES | IC50
33 | COc1cnc2c(-c3nc4cc(F)c(OC[C@@H](C)OC(=O)Nc5cnc(OCCC(C)(C)O)nc5)cc4s3)cc(C)cc2n1 [Example 569, (R)-1-((5-fluoro-2-(2-methoxy-7-methylquinoxalin-5-yl)benzo[d]thiazol-6-yl)oxy)propan-2-yl (2-(3-hydroxy-3-methylbutoxy)pyrimidin-5-yl)carbamate] | 8.2 nM
